“Also recorded” adds a separate entry of the source.

Data set [1] has as its system C. albicans (ATCC 14053). The class given is cell-based, Candida albicans. The conditions noted are these: Mueller-Hinton Broth, 2 × 10^4 CFU/mL, 18 h at 37°C, visible turbidity, complete growth inhibition. Here is the method: (§1) The bacterial strains E. coli (KACC 13821, ATCC 11775) and Staphylococcus aureus (KACC 10768, ATCC 25923), and the yeast strain Candida albicans (KCTC 7121, ATCC 14053) were purchased from the Korean Agricultural Culture Collection (KACC) and Korean Collection for Type Cultures (KCTC). Both bacteria and the yeast were cultivated overnight in tryptic soy broth (TSB; Difco, USA) at 200 rpm in a 37°C shaking incubator to the stationary phase. Bacteria were cultivated for 3 h in fresh TSB medium under the same condition to the log phase. The strains were stored with 15% glycerol at −70°C until use.
(§2) In addition, antimicrobial activities of the peptides were also tested by broth microdilution assays against E. coli, S. aureus, and C. albicans. Briefly, microbes were grown overnight in Mueller-Hinton Broth (MHB) to the onset of the stationary phase with shaking at 200 rpm. The cultures were diluted in fresh MHB to a final concentration of 2 × 10^4 CFU/mL. A stock solution of each peptide was prepared to a concentration of 640 μg/mL in 0.01% acetic acid, and was then serially diluted two-fold to reach a concentration of 10 μg/mL. After 90-μL aliquots of the microbial suspension were dispensed into each well of a 96-well polypropylene microtiter plate, 10 μL of the peptide solution was added. The antimicrobial activities of the peptides were assessed by measuring the visible turbidity in each well of the plate after 18 h of incubation at 37°C. Minimum inhibitory concentrations (MICs) are expressed as a specific value that caused complete growth inhibition.

Data set [2] has as its system C. albicans. The data set is described as follows: Radial diffusion assay. The class given is cell-based, Candida albicans. The conditions noted are these: diameter of growth inhibition zone after 12 h, repeated three times. As for the experimental part: as §1
(§3) The radial diffusion assay was performed to test the antimicrobial activities of peptides, as described previously with slight modifications. In brief, bacteria and yeast strains were grown to the mid-logarithmic phase in TSB at 37°C and then washed twice with 10 mM Tris-HCl (containing 5 mM glucose, pH 7.4). A total of 4 × 10^6 CFU was added to 10 mL of an underlay agarose gel [0.03% (w/v) TSB, 1% (w/v) agarose (Sigma, USA), and 0.02% (v/v) Tween 20 (Sigma, USA) in 10 mM Tris-HCl]. The underlay gel was poured into a 100-mm INTEGRID^TM Petri dish. After agarose solidification, 3-mm-diameter wells were punched and 5 μL of each peptide solution was added to each well. Buffer alone was used as a negative control. Plates were incubated at 37°C for 3 h to allow for diffusion of the peptides. The underlay gel was then covered with 10 mL of nutrient-rich agar overlay (6% TSB and 1% agarose in 10 mM Tris-HCl). […] This experiment was repeated at least 3 times and the same results were obtained.

For data set [3], the system named is E. coli (ATCC 11775). Nature of the data set: Broth microdilution assay (MIC). The class given is cell-based, Escherichia coli. The conditions noted are these: Mueller-Hinton Broth, 2 × 10^4 CFU/mL, 18 h at 37°C, visible turbidity, complete growth inhibition. As for the experimental part: as §1, §2
On the technique in general: Dilution methods test growth across graded concentrations, often in twofold steps.

Data set [4] concerns S. aureus (ATCC 25923). Nature of the data set: Broth microdilution assay (MIC). The class given is cell-based, Staphylococcus aureus. The conditions noted are these: Mueller-Hinton Broth, 2 × 10^4 CFU/mL, 18 h at 37°C, visible turbidity, complete growth inhibition. As for the experimental part: as §1, §2
The subject of data set [5] is E. coli. The data set is described as follows: Radial diffusion assay. The conditions noted are these: diameter of growth inhibition zone after 12 h; compared with melittin; repeated three times. The class given is cell-based, Escherichia coli. As for the experimental part:
as §1, §3

The subject of data set [6] is Gram-negative bacteria, Gram-positive bacteria, and yeast. Nature of the data set: Radial diffusion assay, statement over all three microbes. The class given is cell-based. The following applies: increased in a dose-dependent manner, cleared zone after 12 h at 37°C. Here is the method: as §1, §3
For data set [7], the system named is rat erythrocytes. Nature of the data set: Hemolytic assay. The class given is cell-based. The following applies: 100 μg/mL, compared to melittin, 30 min at 37°C, A540. Here is the method:
This experiment was approved by the Institutional Animal Care and Use Committee (IACUC) of the National Academy of Agricultural Sciences (approval number: NAAS-1114). The hemolytic activity of the peptides was determined by monitoring the release of hemoglobin from rat erythrocytes at 540 nm. For the hemolytic assay, 20 μL of each peptide solution at a predetermined concentration was added to 180 μL of a 2.5% (v/v) suspension of rat erythrocytes in phosphate-buffered saline (PBS). Melittin (Sigma, USA), a hemolytic and α-helical peptide isolated from bee venom, was used as the positive control. This mixture was incubated for 30 min at 37°C, and 600 μL of PBS was then added to each tube. After 3 min of centrifugation at 10,000 ×g, the supernatant was […], and the absorbance was measured at 540 nm. Evaluations were made from the results of at least three independent experiments, each carried out in triplicate.

Data set [8] has as its system S. aureus. The data set is described as follows: Radial diffusion assay. The class given is cell-based, Staphylococcus aureus. The conditions noted are these: diameter of growth inhibition zone after 12 h; compared with melittin; repeated three times. As for the experimental part: as §1, §3

Turning to “ALQICTRNMIDDRLPYVADNVRPGTFIKQQRKQKQQRHHTSGTRKRMAKG [ISGCock_Contig04_0915, synthetic peptide, AMPA stretch of a predicted novel AMP from a P. americana transcript]”, the “Minimum Inhibitory Concentration (MIC)” value in data set [1] is greater than 64 µg/mL; in data set [3], 64 µg/mL; in data set [4], greater than 64 µg/mL. In addition, the “Antimicrobial activity against C. albicans (radial diffusion assay)” value in data set [2] was “strong antimicrobial activity”. The “Antimicrobial activity in E. coli (radial diffusion assay)” value in data set [5] is listed as “stronger antimicrobial activity than melittin”. The “Antimicrobial activity in radial diffusion assay” value in data set [6] is “antimicrobial activity”.
“ANLLRHKVYGYCVLGPKGSSLGGIHGTWHDHHCSLIQRNPSTSTKGN [ISGCock_Contig13_3006, synthetic peptide, AMPA stretch of a predicted novel AMP from a P. americana transcript]”: the figures for the “Minimum Inhibitory Concentration (MIC)” value in data set [1], in data set [3] and in data set [4] were 64 µg/mL, 64 µg/mL and greater than 64 µg/mL, respectively. For the same sequence, the “Antimicrobial activity in radial diffusion assay” value in data set [6] was “antimicrobial activity”.
Regarding “CNYISFFRKCKNSQSTMYGCHRMNKCVFSSY [ISGCock_Contig07_3736–1, synthetic peptide, first AMPA stretch of a predicted novel AMP from a P. americana transcript]”, the “Minimum Inhibitory Concentration (MIC)” value in data set [1], in data set [3] and in data set [4] was greater than 64 µg/mL each time. In addition, the “Antimicrobial activity in radial diffusion assay” value in data set [6] was “antimicrobial activity”.
For the sequence “HLYPCKLNLKLGKVPFHFLNLNHKGKSIMVNQQTCLYYIICQTR [ISGCock_Contig13_4610–1, synthetic peptide, first AMPA stretch of a predicted novel AMP from a P. americana transcript]”, the Hemolytic activity result in data set [7] is given as “relatively low compared to that of melittin”. For the same sequence, the “Minimum Inhibitory Concentration (MIC)” value in data set [1] was greater than 64 µg/mL; in data set [3] it was 64 µg/mL; in data set [4], greater than 64 µg/mL. Further, the “Antimicrobial activity against C. albicans (radial diffusion assay)” value in data set [2] is given as “strong antimicrobial activity”. For the same sequence, the “Antimicrobial activity in S. aureus (radial diffusion assay)” value (shortened to “Antimicrobial activity in S. aureus”) in data set [8] is “greater than that of melittin”. For the same sequence, in data set [5], the “Antimicrobial activity in E. coli (radial diffusion assay)” value is listed as “stronger antimicrobial activity than melittin”. The “Antimicrobial activity in radial diffusion assay” value in data set [6] is “antimicrobial activity”.
Consider “ISHNHLTAASITHVKNRGKYIYMHLKFRKTNVLI [ISGCock_Contig16_2060, synthetic peptide, AMPA stretch of a predicted novel AMP from a P. americana transcript]”, for which the “Minimum Inhibitory Concentration (MIC)” value in data set [1], in data set [3] and in data set [4] was 16 µg/mL throughout. The “Antimicrobial activity in radial diffusion assay” value in data set [6] was “antimicrobial activity”.
On to “KRMKLNAKKLSFCDHLNSYLNLSPTLFIHNSSKQWSHWLWHNGIRI [ISGCock_Contig15_1337–1, synthetic peptide, first AMPA stretch of a predicted novel AMP from a P. americana transcript]”, for which the Hemolytic activity result in data set [7] is on record as “relatively low compared to that of melittin”. The “Minimum Inhibitory Concentration (MIC)” value was 16 µg/mL in data set [1], greater than 64 µg/mL in data set [3] and greater than 64 µg/mL in data set [4]. For the same sequence, the entries for the “Antimicrobial activity against C. albicans (radial diffusion assay)” value in data set [2] and in data set [2] (listed as Contig15_1337–1) were “strong antimicrobial activity” and “highest antifungal activity of the tested peptides”, respectively. Further, in data set [8], the “Antimicrobial activity in S. aureus” value is given as “greater than that of melittin”. Moreover, the “Antimicrobial activity in radial diffusion assay” value in data set [6] is “antimicrobial activity”.
Regarding “LMLCKGFLRHSYKSIHERGTKRGKLCRISRLALSSLP [ISGCock_Contig10_4736–2, synthetic peptide, second AMPA stretch of a predicted novel AMP from a P. americana transcript]”, the “Minimum Inhibitory Concentration (MIC)” value in data set [1] was 32 µg/mL; in data set [3], 16 µg/mL; in data set [4], greater than 64 µg/mL. In addition, the “Antimicrobial activity against C. albicans (radial diffusion assay)” value in data set [2] is “strong antimicrobial activity”. Also, in data set [8], the “Antimicrobial activity in S. aureus” value is listed as “greater than that of melittin”. Moreover, in data set [6], the “Antimicrobial activity in radial diffusion assay” value is “antimicrobial activity”.
As for “MKTFLRLYRSLINKVLHV [ISGCock_Contig05_0593, synthetic peptide, AMPA stretch of a predicted novel AMP from a P. americana transcript]”, the “Minimum Inhibitory Concentration (MIC)” value in data set [1] was found to be 4 µg/mL; in data set [3], 4 µg/mL; in data set [4] it was 16 µg/mL. The “Antimicrobial activity against C. albicans (radial diffusion assay)” value in data set [2] is given as “strong antimicrobial activity”. The “Antimicrobial activity in S. aureus” value in data set [8] is on record as “greater than that of melittin; also recorded: highest antibacterial effect”. In data set [6], the “Antimicrobial activity in radial diffusion assay” value is reported as “antimicrobial activity”.
Consider “RKKVWFIFHVCPKLKQRILSDTHAKNKCRLSPLLIKSTKIKNET [ISGCock_Contig16_4974, synthetic peptide, AMPA stretch of a predicted novel AMP from a P. americana transcript]”, for which the “Minimum Inhibitory Concentration (MIC)” value in data set [1], in data set [3] and in data set [4] was 16 µg/mL each time. Also, the “Antimicrobial activity in radial diffusion assay” value in data set [6] was “antimicrobial activity”.
On to “VVGRKHSILNCIPYLKKKKIMRLVESESIG [ISGCock_Contig12_4176, synthetic peptide, AMPA stretch of a predicted novel AMP from a P. americana transcript]”, for which the Hemolytic activity result in data set [7] is reported as “relatively low compared to that of melittin”. Further, the “Minimum Inhibitory Concentration (MIC)” value in data set [1] is 8 µg/mL; in data set [3], 8 µg/mL; in data set [4] it was greater than 64 µg/mL. Moreover, the “Antimicrobial activity against C. albicans (radial diffusion assay)” value in data set [2] was “strong antimicrobial activity”. Also, the “Antimicrobial activity in S. aureus” value in data set [8] is recorded as “greater than that of melittin”. Moreover, the “Antimicrobial activity in radial diffusion assay” value in data set [6] is “antimicrobial activity”.

Source of the values: PMC4864078, “De Novo Transcriptome Analysis and Detection of Antimicrobial Peptides of the American Cockroach Periplaneta americana (Linnaeus)” (PLoS ONE, 2016).
